Columns and labels:
[1] = test system: peptide-pulsed C1R-A03; assay: In vitro CTL induction, IFN-gamma ELISPOT assay (HLA-A*0301); type: cell-based, human; details: CTLs induced from HLA-A*0301-positive donors, against peptide-pulsed C1R-A03, compared with control
Text: Monocyte-derived dendritic cells (DCs) were used as the antigen-presenting cell to induce a cytotoxic T lymphocyte (CTL) response against peptides presented on human leukocyte antigens (HLAs). As described in the other sections, DCs were generated in vitro (Nakahara S et al., Cancer Res 2003, 63(14): 4112-8). Specifically, peripheral-blood mononuclear cells isolated from healthy volunteers (HLA-A*0301-positive) with the Ficoll-Paque plus solution (Pharmacia) were separated by attaching to plastic tissue culture dishes (Becton Dickinson) and concentrated as a monocyte fraction. The monocyte-concentrated population was cultured in the presence of 1000 IU/ml granulocyte macrophage colony-stimulating factor (R&D System) and 1000 IU/ml interleukin(IL)-4 (R&D System) in an AIM-V medium (Invitrogen) containing 2% heat-inactivated autologous serum (AS). After seven days of culturing, the cytokine-induced DCs were pulsed with 20 micro-g/ml each of the synthesized peptides in an AIM-V medium at 37 degrees C. for three hours in the presence of 3 micro-g/ml beta 2-microglobulin. The generated cells appeared to express on their cell surface DC-associated molecules such as CD80, CD83, CD86 and HLA class II (data not shown). Next, these peptide-pulsed DCs were inactivated by X-ray irradiation (20 Gy), and mixed in a 1:20 ratio with autologous CD8^+ T cells obtained by positive selection using the CD8 Positive Isolation Kit (Dynal). These culture products were seeded in a 48-well plate (Corning). Each well was made to contain 1.5×10^4 peptide-pulsed DCs, 3×10^5 CD8^+ T cells and 10 ng/ml IL-7 (R&D System) in 0.5 ml of the AIM-V/2% AS medium. Three days later, these culture products were added with a final concentration of 20 IU/ml IL-2 (CHIRON). On day 7 and day 14, T cells were further stimulated with peptide-pulsed autologous DCs. The DCs were prepared every time by the same method as above. On day 21, after the third peptide stimulation, CTLs were examined against the peptide-pulsed C1R-A03 by a human interferon (IFN)-gamma enzyme-linked immunospot (ELISPOT) assay (Tanaka H et al., Br J Cancer 2001, 84(1): 94-9; Umano Y et al., Br J Cancer 2001, 84(8): 1052-7; Uchida N et al., Clin Cancer Res 2004, 10(24): 8577-86; Suda T et al., Cancer Sci 2006, 97(5): 411-9; Watanabe T et al., Cancer Sci 2005, 96(8): 498-506).
(§1) To examine specific CTL activity, an IFN-gamma ELISPOT assay and an IFN-gamma enzyme-linked immunosorbent assay (ELISA) were performed. Specifically, peptide-pulsed C1R-A03 (1×10^4 cells/well) was prepared as the stimulator cell. The induced CTLs, i.e., CTL lines and CTL clones, were used as the responder cell. The IFN-gamma ELISPOT assay and IFN-gamma ELISA were performed according to the manufacturer's manual.

[2] = test system: C1R-A03 cells pulsed with the respective peptide; assay: IFN-gamma ELISA of CTL lines and CTL clones (HLA-A*0301); type: cell-based, human
Experimental: CTLs were propagated in culture using methods similar to those disclosed by Riddell et al. (Walter E A et al., N Engl J Med 1995, 333(16): 1038-44; Riddell S R et al., Nat Med 1996, 2(2): 216-23). The CTLs were co-cultured in a total of 25 ml AIM-V medium containing 5% AS (AIM-V/5% AS) and 40 ng/ml anti-CD3 antibody with two types of Mitomycin C-treated human B lymphoblastoid cell lines at 5×10^6 cells/flask. One day after beginning of the culturing, 120 IU/ml IL-2 was added to the culture. On days 5, 8 and 11, a fresh AIM-V/5% AS medium containing 30 IU/ml IL-2 was added to the culture (Tanaka H et al., Br J Cancer 2001, 84(1): 94-9; Umano Y et al., Br J Cancer 2001, 84(8): 1052-7; Uchida N et al., Clin Cancer Res 2004, 10(24): 8577-86; Suda T et al., Cancer Sci 2006, 97(5): 411-9; Watanabe T et al., Cancer Sci 2005, 96(8): 498-506).
Dilution of CTLs was carried out to make 1 and 10 cells/well in 96 round-bottomed microtiter plates (Nalge Nunc International). The CTLs were co-cultured with two types of Mitomycin C-treated human B lymphoblastoid cell lines at 1×10^4 cells/well in a total of 150 micro-l/well 5% AS-containing AIM-V (AIM-V/5% AS) medium with 30 ng/ml anti-CD3 antibody and 125 IU/ml IL-2. Ten days later, IL-2 was added to the medium at 50 micro-l/well to reach a final concentration of 125 IU/ml. On day 14, the CTL activity was tested, and the CTL clones were propagated using the same method as described above (Uchida N et al., Clin Cancer Res 2004, 10(24): 8577-86; Suda T et al., Cancer Sci 2006, 97(5): 411-9; Watanabe T et al., Cancer Sci 2005, 96(8): 498-506).
as §1

[3] = test system: COS7 cells transfected with both full-length URLC10 and the HLA-A*0301 gene; assay: Specific CTL activity against target cells expressing URLC10 and HLA-A*0301; type: cell-based, African green monkey
Text: A cDNA encoding the open-reading frame of a target gene or HLA-A*0301 was amplified by PCR. The PCR-amplified product was cloned into an expression vector. Either or both of the target gene-expressing vector and the HLA-A*0301-expressing vector were transfected into […], which is a cell line negative for the target gene and HLA, using Lipofectamine 2000 (Invitrogen) following the manufacturer's recommended protocol. Two days after transfection, the transfected cells were harvested using versene (Invitrogen), and used as the target cell for CTL activity assay (5×10^4 cells/well).
The CTL clone established against URLC10-A03-11-131 (SEQ ID NO: 31) was investigated for its ability to recognize target cells expressing URLC10 and the HLA-A*0301 molecule. COS7 cells transfected with both full-length URLC10 and the HLA-A*0301 gene (a specific model of target cells expressing URLC10 and the HLA-A*0301 gene) were prepared as the target cell. COS7 cells transfected with either full-length URLC10 or HLA-A*0301 were prepared as the control.

KIFPRFFMVAK (a peptide derived from URLC10) [SEQ ID NO 31, URLC10-derived 11mer peptide, start position 131]
peptide-specific CTL activity (IFN-gamma production) [1]: potent IFN-gamma production | IFN-gamma production of CTL clone ([2]; CTL clone by limiting dilution, against peptide-pulsed C1R-A03 cells): Potent IFN-gamma production | IFN-gamma production of CTL line ([2]; CTL line against peptide-pulsed versus non-pulsed target cells): potent IFN-gamma production | CTL activity of peptide-stimulated CTL clone against control cells ([3]; COS7 cells transfected with either full-length URLC10 or HLA-A*0301): significant specific CTL activity was not detected | CTL activity of peptide-stimulated CTL clone ([3]; against COS7 cells expressing both URLC10 and HLA-A*0301): potent CTL activity

From patent publication US10576097B2, “URLC10-derived peptide and vaccine containing same” (ONCOTHERAPY SCIENCE, INC., priority 2014, dated 2020)
